# Measurements from patent publication US20260022142A1, “MACROCYCLIC IMMUNOMODULATORS” (Bristol-Myers Squibb Company, priority 2022, published 2026).
# Bridge positions count the residues as written; N and C are the ends. Square brackets hold non-standard residues; d marks the D form. Peptide text beside a SMILES is read from it. * marks the point of attachment. ξ: configuration not given here. Phe(4-CONH2) = NC(=O)c1ccc(C[C@H](N)C(=O)O)cc1; Bip = N[C@@H](Cc1ccc(-c2ccccc2)cc1)C(=O)O; Phe(3-Me) = Cc1cccc(C[C@H](N)C(=O)O)c1; Cyclopropanecarbonyl = O=C(C1CC1)*; Val(3-OH) = CC(C)(O)[C@H](N)C(=O)O; Cha = N[C@@H](CC1CCCCC1)C(=O)O; Thr(3ξ) = CC(O)[C@H](N)C(=O)O; 12Ado = NCCCCCCCCCCCC(=O)O; Carboxymethyl = O=C(O)C*; Orn = NCCC[C@H](N)C(=O)O; Aun = NCCCCCCCCCCC(=O)O; Dab = NCC[C@H](N)C(=O)O; Dap = NC[C@H](N)C(=O)O; AEEA = NCCOCCOCC(=O)O; Piv = CC(C)(C)C(=O)*
# Target: T1, PD-1/PD-L1 interaction (PE-labeled human PD-L1-Ig binding to Jurkat cell line over-expressing human PD-1) (Homo sapiens, UniProt Q15116)
# T1 construct: expressed in transfected cells; host or cells: Jurkat
# T1 sequence (Q15116 25-288): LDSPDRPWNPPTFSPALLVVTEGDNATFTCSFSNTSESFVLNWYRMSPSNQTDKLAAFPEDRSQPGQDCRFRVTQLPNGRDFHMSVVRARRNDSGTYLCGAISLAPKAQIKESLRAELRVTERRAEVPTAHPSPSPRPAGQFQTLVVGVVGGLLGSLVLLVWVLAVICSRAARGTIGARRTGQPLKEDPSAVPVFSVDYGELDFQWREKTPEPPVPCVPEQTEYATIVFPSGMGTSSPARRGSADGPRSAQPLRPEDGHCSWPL
# Test: Jurkat-PD-1 Cell Binding High-Content Screening Assay (CBA)
# Assay type: cell-based
# Details: Jurkat cell line over-expressing human PD-1; PE-labeled PD-L1-Ig 20 nM final; read-out: Jurkat hPD1-PDL1 IC50
# Summary of the method: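 Human PD-L1-Ig carrying a covalent PE label on its Ig tag serves as the probe, applied at 20 nM final to compound-treated (2 h, 37° C) Jurkat-hPD-1 cells in medium with 10% fetal calf serum. After one hour, fixation and nuclear staining precede high-content image analysis.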
row,SMILES,IC50 [nM]
1,Cc1cccc(C[C@@H]2NC(=O)[C@H](CC(=O)O)NC(=O)[C@H](Cc3ccc(OCC(=O)O)cc3)NC(=O)[C@H](CCN)NC(=O)CSC[C@@H](C(=O)N[C@@H](CCN)C(=O)NCCCCCCCCCCC(=O)O)NC(=O)[C@H](CO)NC(=O)[C@H](C(C)(C)O)NC(=O)[C@H](CC3CCCCC3)NC(=O)[C@H](CCN)NC(=O)[C@@H](CC(C)C)NC(=O)[C@H](CCCN)NC(=O)[C@H](Cc3ccc(C(N)=O)cc3)NC(=O)[C@H](Cc3ccc(-c4ccccc4)cc3)NC(=O)[C@H](Cc3ccc(OCC(=O)O)cc3)NC2=O)c1 [Compound 3604] ({CH2CO}-[Dab]Y(Carboxymethyl)D[Phe(3-Me)]Y(Carboxymethyl)[Bip][Phe(4-CONH2)][Orn][dL][Dab][Cha][Val(3-OH)]SC[Dab][Aun]-OH; thioether N-14),6.8
2,Cc1cccc(C[C@@H]2NC(=O)[C@H](CC(=O)O)NC(=O)[C@H](Cc3ccc(OCC(=O)O)cc3)NC(=O)[C@H](C(C)O)NC(=O)CSC[C@@H](C(=O)N[C@@H](CCN)C(=O)NCCOCCOCC(=O)NCCCCCCCCCCC(=O)O)NC(=O)[C@H](CCCCN)NC(=O)[C@H](C(C)C)NC(=O)[C@H](CC3CCCCC3)NC(=O)[C@H](CCN)NC(=O)[C@@H](CC(C)C)NC(=O)[C@H](CCCN)NC(=O)[C@H](Cc3ccc(O)cc3)NC(=O)[C@H](Cc3ccc(-c4ccccc4)cc3)NC(=O)[C@H](Cc3ccc(O)cc3)NC2=O)c1 (stereo partly drawn) [Compound 3607] ({CH2CO}-[Thr(3ξ)]Y(Carboxymethyl)D[Phe(3-Me)]Y[Bip]Y[Orn][dL][Dab][Cha]VKC[Dab][AEEA][Aun]-OH; thioether N-14),11.8
3,Cc1cccc(C[C@@H]2NC(=O)[C@H](CC(=O)O)NC(=O)[C@H](Cc3ccc(OCC(=O)O)cc3)NC(=O)[C@H](CN)NC(=O)CSC[C@@H](C(=O)N[C@@H](CCCCN)C(=O)N[C@@H](CO)C(=O)NCCCCCCCCCCC(=O)O)NC(=O)[C@H](CCCN)NC(=O)[C@H](C(C)C)NC(=O)[C@H](CC3CCCCC3)NC(=O)[C@H](CCN)NC(=O)[C@@H](CC(C)C)NC(=O)[C@H](CCCN)NC(=O)[C@H](Cc3ccc(O)cc3)NC(=O)[C@H](Cc3ccc(-c4ccccc4)cc3)NC(=O)[C@H](C(C)C)NC2=O)c1 [Compound 3608] ({CH2CO}-[Dap]Y(Carboxymethyl)D[Phe(3-Me)]V[Bip]Y[Orn][dL][Dab][Cha]V[Orn]CKS[Aun]-OH; thioether N-14),52.7
4,Cc1cccc(C[C@@H]2NC(=O)[C@H](CC(=O)O)NC(=O)[C@H](Cc3ccc(OCC(=O)O)cc3)NC(=O)[C@H](CCN)NC(=O)CSC[C@@H](C(=O)N[C@@H](CCN)C(=O)NCCOCCOCC(=O)NCCCCCCCCCCC(=O)O)NC(=O)[C@H](CCCN)NC(=O)[C@H](C(C)C)NC(=O)[C@H](CC3CCCCC3)NC(=O)[C@H](CCN)NC(=O)[C@@H](CC(C)C)NC(=O)[C@H](CCCN)NC(=O)[C@H](CCCCNC(=O)C(C)(C)C)NC(=O)[C@H](Cc3ccc(-c4ccccc4)cc3)NC(=O)[C@H](CCCCNC(=O)C(C)(C)C)NC2=O)c1 [Compound 3609] ({CH2CO}-[Dab]Y(Carboxymethyl)D[Phe(3-Me)]K(Piv)[Bip]K(Piv)[Orn][dL][Dab][Cha]V[Orn]C[Dab][AEEA][Aun]-OH; thioether N-14),18.8
5,Cc1cccc(C[C@@H]2NC(=O)[C@H](CC(=O)O)NC(=O)[C@H](Cc3ccc(OCC(=O)O)cc3)NC(=O)[C@H](CCN)NC(=O)CSC[C@@H](C(=O)N[C@@H](CCN)C(=O)NCCOCCOCC(=O)NCCCCCCCCCCC(=O)O)NC(=O)[C@H](CCCN)NC(=O)[C@H](C(C)C)NC(=O)[C@H](CC3CCCCC3)NC(=O)[C@H](CCN)NC(=O)[C@@H](CC(C)C)NC(=O)[C@H](CCCN)NC(=O)[C@H](Cc3ccc(O)cc3)NC(=O)[C@H](Cc3ccc(-c4ccccc4)cc3)NC(=O)[C@H](CCCCNC(=O)C(C)(C)C)NC2=O)c1 [Compound 3610] ({CH2CO}-[Dab]Y(Carboxymethyl)D[Phe(3-Me)]K(Piv)[Bip]Y[Orn][dL][Dab][Cha]V[Orn]C[Dab][AEEA][Aun]-OH; thioether N-14),10.1
6,Cc1cccc(C[C@@H]2NC(=O)[C@H](CC(=O)O)NC(=O)[C@H](Cc3ccc(OCC(=O)O)cc3)NC(=O)[C@H](CCN)NC(=O)CSC[C@@H](C(=O)N[C@@H](CCCN)C(=O)N[C@@H](CN)C(=O)NCCCCCCCCCCC(=O)O)NC(=O)[C@H](CCCN)NC(=O)[C@H](C(C)C)NC(=O)[C@H](CC3CCCCC3)NC(=O)[C@H](CCN)NC(=O)[C@@H](CC(C)C)NC(=O)[C@H](CCCN)NC(=O)[C@H](Cc3ccc(O)cc3)NC(=O)[C@H](Cc3ccc(-c4ccccc4)cc3)NC(=O)[C@H](CCCCNC(=O)C(C)(C)C)NC2=O)c1 [Compound 3612] ({CH2CO}-[Dab]Y(Carboxymethyl)D[Phe(3-Me)]K(Piv)[Bip]Y[Orn][dL][Dab][Cha]V[Orn]C[Orn][Dap][Aun]-OH; thioether N-14),13.6
7,Cc1cccc(C[C@@H]2NC(=O)[C@H](CC(=O)O)NC(=O)[C@H](Cc3ccc(OCC(=O)O)cc3)NC(=O)[C@H](CCN)NC(=O)CSC[C@@H](C(=O)N[C@@H](CCCCN)C(=O)N[C@@H](CN)C(=O)NCCCCCCCCCCC(=O)O)NC(=O)[C@H](CCCCN)NC(=O)[C@H](C(C)C)NC(=O)[C@H](CC3CCCCC3)NC(=O)[C@H](CCN)NC(=O)[C@@H](CC(C)C)NC(=O)[C@H](CCCN)NC(=O)[C@H](Cc3ccc(O)cc3)NC(=O)[C@H](Cc3ccc(-c4ccccc4)cc3)NC(=O)[C@H](CCCCNC(=O)C(C)(C)C)NC2=O)c1 [Compound 3613] ({CH2CO}-[Dab]Y(Carboxymethyl)D[Phe(3-Me)]K(Piv)[Bip]Y[Orn][dL][Dab][Cha]VKCK[Dap][Aun]-OH; thioether N-14),24.1
8,Cc1cccc(C[C@@H]2NC(=O)[C@H](CC(=O)O)NC(=O)[C@H](Cc3ccc(OCC(=O)O)cc3)NC(=O)[C@H](CCCNC(=O)C3CC3)NC(=O)CSC[C@@H](C(=O)N[C@@H](CCCN)C(=O)N[C@@H](CO)C(=O)NCCCCCCCCCCCC(=O)O)NC(=O)[C@H](CO)NC(=O)[C@H](CCCCN)NC(=O)[C@H](CC3CCCCC3)NC(=O)[C@H](CCN)NC(=O)[C@@H](CC(C)C)NC(=O)[C@H](CCCN)NC(=O)[C@H](Cc3ccc(OCC(=O)O)cc3)NC(=O)[C@H](Cc3ccc(-c4ccccc4)cc3)NC(=O)[C@H](Cc3ccc(OCC(=O)O)cc3)NC2=O)c1 [Compound 3614] ({CH2CO}-[Orn](Cyclopropanecarbonyl)Y(Carboxymethyl)D[Phe(3-Me)]Y(Carboxymethyl)[Bip]Y(Carboxymethyl)[Orn][dL][Dab][Cha]KSC[Orn]S[12Ado]-OH; thioether N-14),9.7
9,Cc1cccc(C[C@@H]2NC(=O)[C@H](CC(=O)O)NC(=O)[C@H](Cc3ccc(OCC(=O)O)cc3)NC(=O)[C@H](CCN)NC(=O)CSC[C@@H](C(=O)N[C@H](CC(N)=O)C(=O)NCCOCCOCC(=O)NCCCCCCCCCCC(=O)O)NC(=O)[C@H](CCCN)NC(=O)[C@H](C(C)C)NC(=O)[C@H](CC3CCCCC3)NC(=O)[C@H](CCN)NC(=O)[C@@H](CC(C)C)NC(=O)[C@H](CCCN)NC(=O)[C@H](Cc3ccc(O)cc3)NC(=O)[C@H](Cc3ccc(-c4ccccc4)cc3)NC(=O)[C@H](C(C)C)NC2=O)c1 [Compound 3616] ({CH2CO}-[Dab]Y(Carboxymethyl)D[Phe(3-Me)]V[Bip]Y[Orn][dL][Dab][Cha]V[Orn]C[dN][AEEA][Aun]-OH; thioether N-14),18.3
10,Cc1cccc(C[C@@H]2NC(=O)[C@H](CC(=O)O)NC(=O)[C@H](Cc3ccc(OCC(=O)O)cc3)NC(=O)[C@H](CCN)NC(=O)CSC[C@@H](C(=O)N[C@@H](CCCN)C(=O)N[C@@H](CO)C(=O)NCCCCCCCCCCCC(=O)O)NC(=O)[C@H](CO)NC(=O)[C@H](C(C)(C)O)NC(=O)[C@H](CC3CCCCC3)NC(=O)[C@H](CCN)NC(=O)[C@@H](CC(C)C)NC(=O)[C@H](CCCN)NC(=O)[C@H](Cc3ccc(OCC(=O)O)cc3)NC(=O)[C@H](Cc3ccc(-c4ccccc4)cc3)NC(=O)[C@H](Cc3ccc(OCC(=O)O)cc3)NC2=O)c1 [Compound 3617] ({CH2CO}-[Dab]Y(Carboxymethyl)D[Phe(3-Me)]Y(Carboxymethyl)[Bip]Y(Carboxymethyl)[Orn][dL][Dab][Cha][Val(3-OH)]SC[Orn]S[12Ado]-OH; thioether N-14),78.8
11,Cc1cccc(C[C@@H]2NC(=O)[C@H](CC(=O)O)NC(=O)[C@H](Cc3ccc(OCC(=O)O)cc3)NC(=O)[C@H](Cc3ccc(C(N)=O)cc3)NC(=O)CSC[C@@H](C(=O)N[C@@H](CCCN)C(=O)N[C@@H](CO)C(=O)NCCCCCCCCCCCC(=O)O)NC(=O)[C@H](CO)NC(=O)[C@H](C(C)(C)O)NC(=O)[C@H](CC3CCCCC3)NC(=O)[C@H](CCN)NC(=O)[C@@H](CC(C)C)NC(=O)[C@H](CCCN)NC(=O)[C@H](Cc3ccc(OCC(=O)O)cc3)NC(=O)[C@H](Cc3ccc(-c4ccccc4)cc3)NC(=O)[C@H](Cc3ccc(OCC(=O)O)cc3)NC2=O)c1 [Compound 3618] ({CH2CO}-[Phe(4-CONH2)]Y(Carboxymethyl)D[Phe(3-Me)]Y(Carboxymethyl)[Bip]Y(Carboxymethyl)[Orn][dL][Dab][Cha][Val(3-OH)]SC[Orn]S[12Ado]-OH; thioether N-14),21.8
12,CC(=O)NCCCC[C@@H]1NC(=O)[C@H](Cc2ccc(-c3ccccc3)cc2)NC(=O)[C@H](Cc2ccc(O)cc2)NC(=O)[C@H](Cc2cccc(C)c2)NC(=O)[C@H](CC(=O)O)NC(=O)[C@H](Cc2ccc(OCC(=O)O)cc2)NC(=O)[C@H](CN)NC(=O)CSC[C@@H](C(=O)N[C@@H](CCN)C(=O)N[C@@H](CO)C(=O)NCCCCCCCCCCCC(=O)O)NC(=O)[C@H](CCCN)NC(=O)[C@H](C(C)C)NC(=O)[C@H](CC2CCCCC2)NC(=O)[C@H](CCN)NC(=O)[C@@H](CC(C)C)NC(=O)[C@H](CCCN)NC1=O [Compound 3619] ({CH2CO}-[Dap]Y(Carboxymethyl)D[Phe(3-Me)]Y[Bip]K(Ac)[Orn][dL][Dab][Cha]V[Orn]C[Dab]S[12Ado]-OH; thioether N-14),13.4
